The values below come from patent US8183211B2, “Pharmaceutical compositions for inhibiting intestinal permeability” (University of Maryland, Baltimore, priority 2000, dated 2012).

Ends that are not written are not given here.

The subject of one data set is rabbit ileum. In words: Tissue resistance (Rt) of rabbit ileum mounted in Ussing chambers. Format: cell-based. How it is done:
Next, rabbit ileum mounted in Ussing chambers as described above, were exposed to 100 μg of FZI/0 (SEQ ID NO:15), 100 μg of FZI/1 (SEQ ID NO:29), 1.0 μg of 6×His-ZOT (obtained as described in Example 1 of U.S. patent application Ser. No. 09/127,815, filed Aug. 3, 1998), 1.0 μg of zonulini (obtained as described in Example 3 of U.S. patent application Ser. No. 09/127,815, filed Aug. 3, 1998), or 1.0 μg of zonulinh (obtained as described in Example 3of U.S. patent application Ser. No. 09/127,815, filed Aug. 3, 1998), alone; or pre-exposed for 20 min to 100 μg of FZI/0 or FZI/1, at which time 1.0 μg of 6×His-ZOT, 1.0 μg of zonulini, or 1.0 μg of zonulinh, was added. ΔRt was then calculated as described above.

A further data set relates to rabbit ileal mucosa. The conditions noted are these: cited from earlier work.
A further data set has as its system BB/Wor rats. In words: BB/Wor diabetic rat model, progression to diabetes. It is filed as in vivo. The conditions noted are these: 10 μg/ml in drinking water. Here is the method:
Both groups were maintained on a standard diet of rat chow (Harlan Teklab Diet #7012). All food and water were previously autoclaved. Each day, daily water intake was measured and 100 ml of fresh water was given. The treated group received 10 μg/ml of the zonulin peptide antagonist (SEQ ID NO:15) supplemented in the drinking water. The rats were housed in hepa-filter cages.
Diabetes in the rats was diagnosed as follows: The rats were weighed twice a week. Blood glucose was determined weekly using the OneTouch® glucose monitoring system (Johnson & Johnson). Each week, reagent strips for urinalysis were used to monitor glucose (Diastix®) and ketones (Ketositx®) (Bayer). Rats with a blood glucose>250 mg/dl were fasted overnight, and blood glucose levels>200 mg/dl were considered diabetic.
Following clinical presentation of diabetes, the rats were sacrificed as follows: the rats were anesthesized using ketamine anesthesia and a midline incision was made allowing access to the heart. An 18 G needle was placed into the heart and death occurred by exsanguinations. Then, zonulin assays were conducted as described above. […] According to Biomedical Research Models, Inc., 80% of diabetes prone rats present with diabetes by age 80 days.

In the case of “FZI/1: second synthetic peptide: Gly in position 8, Val in position 12, Gln in position 13 changed to Val, Gly, Arg (VGVLGRPG; tight junction antagonist peptide) [reference compound]”, the “inhibitory effect on ZOT, zonulini and zonulinh action on Rt” value in the data set with rabbit ileum (pre-exposure for 20 min to 100 μg peptide) is “completely ablated”.
For the substance “ZOT: zonula occludens toxin elaborated by V. cholerae”, in the data set with rabbit ileal mucosa, the “Na+-glucose coupled active transport” value is given as “does not affect”, the cytotoxicity result is reported as “not cytotoxic” and the transepithelial resistance entry is “fails to completely abolish”.
“GGVLVQPG [FZI/0, synthetic octapeptide corresponding to amino acid residues 8-15 of human fetal zonulini]”: the “change in Rt as compared to the negative control” value in the data set with rabbit ileum (100 μg peptide alone, rabbit ileum) is reported as 0.5%. Also, the “decrease of the effect of ZOT on Rt” value with rabbit ileum (pre-treatment for 20 min with 100 μg peptide, then 1.0 μg 6×His-ZOT) is on record as 75%. In addition, the “decrease of the effect of zonulinh on Rt” value with rabbit ileum (pre-treatment for 20 min with 100 μg peptide, then 1.0 μg zonulinh) is 100%. In the data set with rabbit ileum (pre-treatment for 20 min with 100 μg peptide, then 1.0 μg zonulini), the “decrease of the effect of zonulini on Rt” value is recorded as 97%. In the data set on BB/Wor rats (endpoint age 80 days), the “treated rats that did not develop diabetes” value is 60%. Further, the “rats that developed diabetes by age 80 days” value with BB/Wor rats (n=5, control rats 80%) is on record as 40%.
